# Target: T1, GABAB receptor (Homo sapiens, UniProt O75899+Q9UBS5)
# T1 construct: expressed in transfected cells; host or cells: CHO cells (membranes)
# Assay: [35S]-GTPγS binding assay, potency of PAM
# Type: biochemical
# Settings: potency of the positive allosteric modulator; log EC50 for GABA plotted against log concentration of modulator
# Method: [^35S]-GTPγS binding assays were performed at 30° C. for 45 min in membrane buffer (100 mM NaCl, […], 1 mM EDTA, 50 mM HEPES, pH 7.4) containing 0.025 μg/μl of membrane protein (prepared from the cell lines described above) with 0.01% bovine serum albumin (fatty acid free), 10 μM GDP, 100 μM DTT and 0.53 nM [^35S]-GTPγS (Amersham-Pharmacia Biotech) in a final volume of 200 μl. Nonspecific binding was determined in the presence of 20 μM GTPγS. The reaction was started by the addition of GABA at concentration between 1 mM and 0.1 nM in the presence or absence of the required concentration of PAM. The reaction was terminated by addition of ice-cold wash buffer (50 mM Tris-HCl, 5 mM MgCl2, 50 mM NaCl, pH 7.4) followed by rapid filtration under vacuum through Printed Filtermat A glass fiber filters (Wallac) (0.05% PEI treated) using a Micro 96 Harvester (Skatron Instruments). The filters were dried for 30 min at 50° C., then a paraffin scintillant pad was melted onto the filters and the bound radioactivity was determined using a 1450 Microbeta Trilux (Wallac) scintillation counter.
# GABA dose-response curves in the presence and absence of test compounds were constructed using the 4-parameter logistic equation, y=ymax+((ymin−ymax)/1+(x/C)^D), where C=EC50 and D=slope factor.
# The potency of PAM in GTPγS assays was determined by plotting the log EC50 for GABA against the log concentration of the positive allosteric modulator in the presence of which the measurement was performed.
# T1 sequence (Q9UBS5 15-961 limits assumed): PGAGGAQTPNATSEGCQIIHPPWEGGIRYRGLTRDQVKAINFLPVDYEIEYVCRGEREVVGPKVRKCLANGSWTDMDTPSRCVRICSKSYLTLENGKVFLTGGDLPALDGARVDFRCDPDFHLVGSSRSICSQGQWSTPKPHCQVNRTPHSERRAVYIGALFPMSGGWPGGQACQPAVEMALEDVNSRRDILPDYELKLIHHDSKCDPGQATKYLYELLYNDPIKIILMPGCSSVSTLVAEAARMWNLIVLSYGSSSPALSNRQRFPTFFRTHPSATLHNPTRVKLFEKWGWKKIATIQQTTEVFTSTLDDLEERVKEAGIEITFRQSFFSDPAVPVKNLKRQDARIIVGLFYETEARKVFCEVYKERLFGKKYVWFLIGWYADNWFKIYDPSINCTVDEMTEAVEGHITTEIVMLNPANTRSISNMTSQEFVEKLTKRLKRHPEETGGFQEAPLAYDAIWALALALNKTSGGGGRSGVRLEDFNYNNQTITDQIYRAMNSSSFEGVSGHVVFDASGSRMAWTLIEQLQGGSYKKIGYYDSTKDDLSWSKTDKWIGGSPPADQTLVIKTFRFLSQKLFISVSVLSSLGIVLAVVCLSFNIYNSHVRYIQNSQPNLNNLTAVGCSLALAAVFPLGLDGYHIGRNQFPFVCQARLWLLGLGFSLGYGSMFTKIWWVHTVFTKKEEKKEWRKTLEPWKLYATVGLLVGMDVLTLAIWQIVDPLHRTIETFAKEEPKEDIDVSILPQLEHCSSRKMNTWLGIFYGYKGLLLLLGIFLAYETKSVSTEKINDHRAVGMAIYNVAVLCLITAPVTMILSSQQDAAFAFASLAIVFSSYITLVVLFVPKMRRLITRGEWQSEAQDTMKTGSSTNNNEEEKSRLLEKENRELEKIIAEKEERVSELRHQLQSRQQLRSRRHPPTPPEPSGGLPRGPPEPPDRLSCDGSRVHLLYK
# T1 sequence (O75899 42-941): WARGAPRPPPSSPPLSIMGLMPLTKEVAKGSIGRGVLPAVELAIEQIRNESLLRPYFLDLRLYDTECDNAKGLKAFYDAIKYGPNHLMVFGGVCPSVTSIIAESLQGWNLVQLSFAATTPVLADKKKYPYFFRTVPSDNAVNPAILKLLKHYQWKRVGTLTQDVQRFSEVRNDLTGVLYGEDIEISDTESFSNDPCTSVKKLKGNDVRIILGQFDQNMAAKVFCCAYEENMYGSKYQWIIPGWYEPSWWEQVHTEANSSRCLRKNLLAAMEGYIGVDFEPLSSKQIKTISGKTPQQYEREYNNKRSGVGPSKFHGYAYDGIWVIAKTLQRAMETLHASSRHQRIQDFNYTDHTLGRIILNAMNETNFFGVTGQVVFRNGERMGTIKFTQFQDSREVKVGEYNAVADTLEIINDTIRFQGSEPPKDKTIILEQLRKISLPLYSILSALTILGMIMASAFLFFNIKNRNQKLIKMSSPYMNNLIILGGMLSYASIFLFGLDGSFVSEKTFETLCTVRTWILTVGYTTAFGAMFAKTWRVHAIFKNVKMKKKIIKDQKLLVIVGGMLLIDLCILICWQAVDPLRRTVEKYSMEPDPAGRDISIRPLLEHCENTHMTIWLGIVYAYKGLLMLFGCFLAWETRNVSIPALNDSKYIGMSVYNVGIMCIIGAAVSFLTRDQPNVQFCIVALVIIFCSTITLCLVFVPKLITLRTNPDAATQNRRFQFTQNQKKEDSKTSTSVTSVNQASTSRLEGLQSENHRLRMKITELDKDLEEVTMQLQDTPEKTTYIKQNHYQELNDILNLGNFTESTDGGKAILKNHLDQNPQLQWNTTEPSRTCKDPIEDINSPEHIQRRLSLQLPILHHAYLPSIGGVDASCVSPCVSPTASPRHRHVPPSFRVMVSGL
row,SMILES,EC50 [nM]
1,"CCCc1c(C(=O)Nc2nc(N(C)C)n(-c3ccccc3)c2C(=O)OC(C)(C)C)cnn1-c1ccccc1 [Example 44, tert-butyl 2-(dimethylamino)-1-phenyl-4-{[(1-phenyl-5-propyl-1H-pyrazol-4-yl)carbonyl]amino}-1H-imidazole-5-carboxylate]",2530
2,"CN(C)c1nc(NC(=O)C2Cc3ccccc3O2)c(C(=O)OC(C)(C)C)n1-c1ccccc1 (stereo not drawn) [Example 13, tert-butyl 4-[(2,3-dihydro-1-benzofuran-2-ylcarbonyl)amino]-2-(dimethylamino)-1-phenyl-1H-imidazole-5-carboxylate]",5130
3,"CN(C)c1nc(NC(=O)COCc2ccccc2)c(C(=O)OC(C)(C)C)n1-c1ccccc1 [Example 9, tert-butyl 4-{[(benzyloxy)acetyl]amino}-2-(dimethylamino)-1-phenyl-1H-imidazole-5-carboxylate]",2470

# Reference: US7812026B2, “Imidazole derivatives having a positive allosteric GABAB receptor modulator effect and methods of use” (AstraZeneca AB, priority 2005, dated 2010)
